We go through one molecule from patent US20220356163A1, “SMALL MOLECULE INHIBITORS OF Id PROTEINS” (MEMORIAL SLOAN KETTERING CANCER CENTER, priority 2019, published 2022).

In general, IC50 refers to the concentration that gives 50% inhibition.

Assay [1] deals with HUVEC. The experiment in a line: HUVEC scratch (migration) assay. To be noted: 0-40 μM, 24 hours. In kind it is cell-based, human. The method, then:
HUVEC scratch assay. HUVECs were seeded on 24-well plate coated with 0.1% fibronectin. After 24 hours when cells were grown to confluency, cells were serum starved for 4 hours in Endothelial Basal Medium (EBM, Lonza) and scraped with a sterile P200 pipette tip to generate a cell free zone. Cells were washed with PBS and stimulated with EGM-2 medium with the indicated AGX concentration for 24 hours. The scratched area at 0 and at 24 hours was visualized using an inverted microscope and photographed with a digital camera at 20× magnification.

For assay [2], the system named is retinal neovascularization. The experiment in a line: Retinopathy of prematurity (ROP) model. It counts as in vivo, mouse. To be noted: intraocular injection 10 μg at P12, assessed P17, p<0.01. As for the experimental part:
In the ROP experiment 26 C57BL/6 pups, 36 Id^−/− and 22 Id3^−/− pups were place in 75% O2 at P7. On P12 the mice were returned to room air and at P17 they were euthanized and retinal neovascularization was measured as described above. In the AGX51 ROP experiment, C57BL/6 pups were place in 75% O2 at P7. On P12 the mice were returned to room air and injected in the eye with 10 μg AGX51 or DMSO in the FE (N=15 mice/group). On P17 they were euthanized and retinal neovascularization was measured as described above. Retinal neovascularization pathology can also be studied in mouse models of retinopathy of prematurity (ROP). In this model, post-natal day (P) 7 mice are placed in a 75% O2 chamber, which causes retinal capillary depletion. At P12, the mice are returned to room air, which leads to the development of retinal ischemia and proliferative vascular disease in the retinal vasculature. When this model was applied to Id1 or Id3 knockout mice, a significant decrease in retinal neovascularization was observed (p<0.0001) compared to wild type mice (FIG. 1C).

Assay [3] deals with HUVEC. Briefly: HUVEC cell branching assay on Matrigel. It counts as cell-based, human. To be noted: 0-40 μM, 18-20 hours, p<0.05. As for the experimental part: HUVEC cell branching assays. For branching assays, 350 μL of Matrigel was loaded into each well of a 24-well plate on ice and incubate the plate for 30 minutes at 37° C. to allow the Matrigel to solidify. 80,000 HUVECs in 0.5 mL of EGM-2 medium with the indicated AGX concentration was plated on the solidified Matrigel. At 18-20 hours of incubation when the tube formation was peaked, media from the well was carefully removed and fixed with 10% buffered formalin for 15 minutes. Each well was washed with DPBS. The morphology of capillary like structures was visualized using an inverted microscope and photographed with a digital camera at 10× magnification. To quantify the tube network, Image J with the Angiogenesis Analyzer plugin (public domain Java-based image-processing program, reference: Carpentier G. ImageJ contribution: Angiogenesis Analyzer. ImageJ News. 2012) was installed and the analysis for the number of nodes, junctions, meshes and total branching length was performed as per the instruction. The statistical data analyses were performed using the Wilcoxon test.

In a further assay the test system is PDX-IBT. Briefly: MTT assay, PDX-IBT. It counts as cell-based. The settings on record: 24 h, PDX cell line, read-out: IC50 value after 24 hours of treatment. An excerpt:
The 4T1 murine mammary tumor cell line and nine breast cancer cell lines representing the major breast cancer subtypes (ER+, HER2+, and TNBC) including MDA-MB-157, MDA-MB-436, MDA-MB-231, MDA-MB-453, MDA-MB-361, BT-474, SK-BR-3, MCF-7 and T47-D will be grown in RPMI or DMEM (Dulbecco's Modified Eagle Medium) media supplemented with 10% FBS (fetal bovine serum), 1% penicillin-streptomycin and 1% L-Glutamine. Patient derived xenograft cell lines BR7, BR11, and IBT will be established directly from breast cancer bone metastases specimens surgically resected from patients with informed consent. BR7 and BR11 specimens will be obtained from ER positive (HER2 negative and PR negative) metastatic breast cancer patients, while the IBT specimen will be obtained from a metastatic, triple negative breast cancer patient. Fresh tumor tissues will be quickly washed with ice cold PBS and minced into about 1-3 mm pieces in MEM medium (without FBS) using sterile razor blades. […] The cells will be treated with either 100 μM DMSO, AGX51, or a compound of the present technology such as AGX-A. The cell morphology and growth will be monitored daily for 1 week by microscopy for changes in morphology or cell death. […] Absorbance will then measured at 570 nm using a plate reader (Synergy 2, BioTek). […]

For the next assay, the system named is colon tumors. The experiment in a line: Azoxymethane (AOM) colon tumor model. It counts as in vivo, mouse. To be noted: 15 mg/kg i.p. for three weeks. The method, then:
Spontaneous colon tumors will be induced by treating 30, 4-week old male A/J mice (Jackson Laboratory) with AOM (10 mg/kg; Sigma Aldrich) once a week by i.p. injection for 6 weeks. Mice will be maintained on AIN-93G purified diet (Research Diets) for the duration of the experiment. After a three-week treatment break mice will be treated i.p. for three weeks with DMSO, AGX51 (15 mg/kg) or a compound of the present technology (e.g., AGX-A; 15 mg/kg). Following the last injection, the mice will be euthanized and colon tumors will be formalin fixed to assess tumor burden. Tumor numbers and size will be determined in whole mounts of the tissues following methylene blue staining. For aid in future comparison with a compound of the present technology, the study was initially performed with DMSO and AGX51 where exemplary data of effects of AGX51 on sporadic tumor is shown FIGS. 35A-35D.

On to `CCC(=O)N(CCC(c1ccc2c(c1)OCO2)c1ccccc1OC)Cc1ccccc1` (racemic) [AGX51, N-(3-(benzo[d][1,3]dioxol-5-yl)-3-(2-methoxyphenyl)propyl)-N-benzylpropionamide], for which the HUVEC migration entry in the assay with HUVEC [1] is “significantly impaired HUVEC migration”. In addition, the retinal neovascularization entry in assay [2] is listed as “significantly reduced retinal neovascularization”. Further, the “vascular branching (nodes, junctions, meshes, branch length)” value in the assay on HUVEC [3] is “significantly impaired in a dose-dependent manner”. In addition, the half-maximal inhibitory concentration (IC50) with PDX-IBT turned out to be 12 µM. In the assay on colon tumors (p=0.008), the “number of colon tumors” value is “significant decrease in the number of colon tumors”. In the assay on colon tumors (significant for tumors >3 mm (p=0.004)), the “colon tumor size vs DMSO group” value was “smaller than those in the DMSO group”.
